Assay results as given in US8372863B2, “Tetrahydro-1H-pyrrolo fused pyridones” (Merck Sharp & Dohme Corp., priority 2008, dated 2013).
Counter-ions that a name gives are not always drawn.

target: PHD2 (Homo sapiens, UniProt Q9GZT9); experiment: PHD2 / HIF-1α peptide hydroxylation assay with time resolved fluorescence readout (PHD2 binding activity); format: biochemical; details: FLAG-tagged full length PHD2; 0.2 μM 2-oxoglutarate, 0.5 μM HIF-1α peptide; read-out: PHD2 Activity (PHD2 binding activity expressed as IC50)
Sequence (Q9GZT9 whole entry): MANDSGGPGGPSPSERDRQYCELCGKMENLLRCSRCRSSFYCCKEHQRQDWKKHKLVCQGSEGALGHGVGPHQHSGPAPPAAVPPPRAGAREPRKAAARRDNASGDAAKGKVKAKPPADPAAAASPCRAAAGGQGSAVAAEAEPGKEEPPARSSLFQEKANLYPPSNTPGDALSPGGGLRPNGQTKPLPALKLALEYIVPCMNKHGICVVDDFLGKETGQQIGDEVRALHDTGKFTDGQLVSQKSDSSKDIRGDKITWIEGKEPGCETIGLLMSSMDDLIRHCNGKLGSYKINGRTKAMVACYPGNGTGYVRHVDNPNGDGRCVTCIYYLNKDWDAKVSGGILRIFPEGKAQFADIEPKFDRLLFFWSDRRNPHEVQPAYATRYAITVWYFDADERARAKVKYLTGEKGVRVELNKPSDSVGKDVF
Procedure: After a 30 min preincubation at room temperature, the enzymatic reactions were initiated by the addition of 4 μL of substrates (final concentrations of 0.2 μM 2-oxoglutarate and 0.5 μM HIF-1α peptide biotinyl-DLDLEMLAPYIPMDDDFQL). After 2 hr at room temperature, the reactions were terminated and signals were developed by the addition of a 25 μL quench/detection mix to a final concentration of 1 mM ortho-phenanthroline, 0.1 mM EDTA, 0.5 nM anti-(His)6 LANCE reagent (Perkin-Elmer Life Sciences), 100 nM AF647-labeled streptavidin (Invitrogen), and 2 μg/ml (His)6-VHL complex (S. Tan(2001) Protein Expr. Purif 21, 224-234). The ratio of time resolved fluorescence signals at 665 and 620 nm was determined, and percent inhibition was calculated relative to an uninhibited control sample run in parallel.

| IC50 | Compound |
| --- | --- |
| < 10 nM | C=CCCC(=O)N1Cc2c(O)c(C(=O)NCC(=O)O)c(=O)n(Cc3cccc(-c4ccccc4)c3)c2C1 [Example 43, N-{[1-(biphenyl-3-ylmethyl)-4-hydroxy-2-oxo-6-pent-4-enoyl-2,5,6,7-tetrahydro-1H-pyrrolo[3,4-b]pyridin-3-yl]carbonyl}glycine] |
| < 10 nM | O=C(O)CNC(=O)c1c(O)c2c(n(Cc3cccc(-c4ccccc4)c3)c1=O)CN(C(=O)c1cscn1)C2 [Example 44, N-{[1-(biphenyl-3-ylmethyl)-4-hydroxy-2-oxo-6-(1,3-thiazol-4-ylcarbonyl)-2,5,6,7-tetrahydro-1H-pyrrolo[3,4-b]pyridin-3-yl]carbonyl}glycine] |
| < 10 nM | O=C(O)CNC(=O)c1c(O)c2c(n(Cc3cccc(-c4ccc(Cl)cc4)c3)c1=O)CN(C(=O)c1cscn1)C2 [Example 45, N-{[1-[(4′-chlorobiphenyl-3-yl)methyl]-4-hydroxy-2-oxo-6-(1,3-thiazol-4-ylcarbonyl)-2,5,6,7-tetrahydro-1H-pyrrolo[3,4-b]pyridin-3-yl]carbonyl}glycine] |
| < 10 nM | O=C(O)CNC(=O)c1c(O)c2c(n(Cc3cccc(-c4ccccc4Cl)c3)c1=O)CN(C(=O)c1cscn1)C2 [Example 47, N-{[1-[(2′-chlorobiphenyl-3-yl)methyl]-4-hydroxy-2-oxo-6-(1,3-thiazol-4-ylcarbonyl)-2,5,6,7-tetrahydro-1H-pyrrolo[3,4-b]pyridin-3-yl]carbonyl}glycine] |
| < 10 nM | C=CCCC(=O)N1Cc2c(O)c(C(=O)NCC(=O)O)c(=O)n(Cc3ccc(-c4ccccc4)cc3)c2C1C (centres unmarked) [Example 48, N-{[1-(biphenyl-4-ylmethyl)-4-hydroxy-7-methyl-2-oxo-6-pent-4-enoyl-2,5,6,7-tetrahydro-1H-pyrrolo[3,4-b]pyridin-3-yl]carbonyl}glycine] |
| < 10 nM | O=C(O)CNC(=O)c1c(O)c2c(n(Cc3ccccc3-c3ccccc3)c1=O)CN(C(=O)c1cscn1)C2 [Example 49, N-{[1-(biphenyl-2-ylmethyl)-4-hydroxy-2-oxo-6-(1,3-thiazol-4-ylcarbonyl)-2,5,6,7-tetrahydro-1H-pyrrolo[3,4-b]pyridin-3-yl]carbonyl}glycine] |
| < 10 nM | O=C(O)CNC(=O)c1c(O)c2c(n(Cc3cccc(-c4cccc(Cl)c4)c3)c1=O)CN(C(=O)c1cscn1)C2 [Example 50, N-{[1-[(3′-chlorobiphenyl-3-yl)methyl]-4-hydroxy-2-oxo-6-(1,3-thiazol-4-ylcarbonyl)-2,5,6,7-tetrahydro-1H-pyrrolo[3,4-b]pyridin-3-yl]carbonyl}glycine] |
| < 10 nM | O=C(O)CNC(=O)c1c(O)c2c(n(Cc3ccccc3)c1=O)CN(C(=O)c1cscn1)C2 [Example 54, N-{[1-benzyl-4-hydroxy-2-oxo-6-(1,3-thiazol-4-ylcarbonyl)-2,5,6,7-tetrahydro-1H-pyrrolo[3,4-b]pyridin-3-yl]carbonyl}glycine] |

Continued, compound first:

| Compound | IC50 |
| --- | --- |
| O=C(O)CNC(=O)c1c(O)c2c(n(Cc3ccc(C(F)(F)F)cc3)c1=O)CN(Cc1ccc(Cl)cc1)C2 [Example 39, N-({6-(4-chlorobenzyl)-4-hydroxy-2-oxo-1-[4-(trifluoromethyl)benzyl]-2,5,6,7-tetrahydro-1H-pyrrolo[3,4-b]pyridin-6-ium-3-yl}carbonyl)glycine trifluoroacetate] | < 10 nM |
| O=C(O)CNC(=O)c1c(O)c2c(n(Cc3ccc(C(F)(F)F)cc3)c1=O)CN(Cc1cccc(Cl)c1)C2 [Example 40, N-({6-(3-chlorobenzyl)-4-hydroxy-2-oxo-1-[4-(trifluoromethyl)benzyl]-2,5,6,7-tetrahydro-1H-pyrrolo[3,4-b]pyridin-6-ium-3-yl}carbonyl)glycine chloride] | 10 to 100 nM |
| CCN1Cc2c(O)c(C(=O)NCC(=O)O)c(=O)n(Cc3ccc(C(F)(F)F)cc3)c2C1 [Example 41, N-({6-ethyl-4-hydroxy-2-oxo-1-[4-(trifluoromethyl)benzyl]-2,5,6,7-tetrahydro-1H-pyrrolo[3,4-b]pyridin-6-ium-3-yl}carbonyl)glycine trifluoroacetate] | 10 to 100 nM |
| N#Cc1cccnc1N1Cc2c(O)c(C(=O)NCC(=O)O)c(=O)n(Cc3ccc(C(F)(F)F)cc3)c2C1 [Example 42, N-({6-(3-cyanopyridinium-2-yl)-4-hydroxy-2-oxo-1-[4-(trifluoromethyl)benzyl]-2,5,6,7-tetrahydro-1H-pyrrolo[3,4-b]pyridin-3-yl}carbonyl)glycine trifluoroacetate] | < 10 nM |
| O=C(O)CNC(=O)c1c(O)c2c(n(Cc3cccc(-c4cncnc4)c3)c1=O)CN(C(=O)c1cscn1)C2 [Example 46, N-{[4-hydroxy-2-oxo-1-(3-pyrimidin-5-ylbenzyl)-6-(1,3-thiazol-4-ylcarbonyl)-2,5,6,7-tetrahydro-1H-pyrrolo[3,4-b]pyridin-3-yl]carbonyl}glycine] | < 10 nM |
| O=C(O)CNC(=O)c1c(O)c2c(n(Cc3cccc(-c4ccncc4)c3)c1=O)CN(C(=O)c1cscn1)C2 [Example 51, N-{[4-hydroxy-2-oxo-1-(3-pyridin-4-ylbenzyl)-6-(1,3-thiazol-3-ium-4-ylcarbonyl)-2,5,6,7-tetrahydro-1H-pyrrolo[3,4-b]pyridin-3-yl]carbonyl}glycine trifluoroacetate] | < 10 nM |
| O=C(O)CNC(=O)c1c(O)c2c(n(Cc3cccc(-c4cccnc4)c3)c1=O)CN(C(=O)c1cscn1)C2 [Example 52, N-{[4-hydroxy-2-oxo-1-(3-pyridin-3-ylbenzyl)-6-(1,3-thiazol-3-ium-4-ylcarbonyl)-2,5,6,7-tetrahydro-1H-pyrrolo[3,4-b]pyridin-3-yl]carbonyl}glycine trifluoroacetate] | < 10 nM |
| O=C(O)CNC(=O)c1c(O)c2c(n(Cc3cccc(-c4ccc(F)nc4)c3)c1=O)CN(C(=O)c1cscn1)C2 [Example 53, N-{[1-[3-(6-fluoropyridin-3-yl)benzyl]-4-hydroxy-2-oxo-6-(1,3-thiazo1-4-ylcarbonyl)-2,5,6,7-tetrahydro-1H-pyrrolo[3,4-b]pyridin-3-yl]carbonyl}glycine] | < 10 nM |
| N#Cc1ccccc1Cn1c2c(c(O)c(C(=O)NCC(=O)O)c1=O)CN(C(=O)c1cscn1)C2 [Example 56, N-{[1-(2-cyanobenzyl)-4-hydroxy-2-oxo-6-(1,3-thiazol-4-ylcarbonyl)-2,5,6,7-tetrahydro-1H-pyrrolo[3,4-b]pyridin-3-yl]carbonyl}glycine] | < 10 nM |
